How the values were obtained:
[1] = Toxicity in CD-1 mouse xenografted with BRCA2 knock in human HCT-116 cells assessed as body weight loss at 80 mg/kg, po administered twice a day for 21 days; format: organism-based; conditions: in vivo, 504 h, time 21 day
[2] = Oral bioavailability in CD-1 mouse at […] measured upto 24 hrs by reverse phase LCMS analysis; format: ADME, organism-based; conditions: in vivo
[3] = molecular target: T1, DNA polymerase subunit gamma-1 (Homo sapiens, UniProt P54098); test: Inhibition of human DNA polymerase gamma
T1 sequence (P54098 whole entry): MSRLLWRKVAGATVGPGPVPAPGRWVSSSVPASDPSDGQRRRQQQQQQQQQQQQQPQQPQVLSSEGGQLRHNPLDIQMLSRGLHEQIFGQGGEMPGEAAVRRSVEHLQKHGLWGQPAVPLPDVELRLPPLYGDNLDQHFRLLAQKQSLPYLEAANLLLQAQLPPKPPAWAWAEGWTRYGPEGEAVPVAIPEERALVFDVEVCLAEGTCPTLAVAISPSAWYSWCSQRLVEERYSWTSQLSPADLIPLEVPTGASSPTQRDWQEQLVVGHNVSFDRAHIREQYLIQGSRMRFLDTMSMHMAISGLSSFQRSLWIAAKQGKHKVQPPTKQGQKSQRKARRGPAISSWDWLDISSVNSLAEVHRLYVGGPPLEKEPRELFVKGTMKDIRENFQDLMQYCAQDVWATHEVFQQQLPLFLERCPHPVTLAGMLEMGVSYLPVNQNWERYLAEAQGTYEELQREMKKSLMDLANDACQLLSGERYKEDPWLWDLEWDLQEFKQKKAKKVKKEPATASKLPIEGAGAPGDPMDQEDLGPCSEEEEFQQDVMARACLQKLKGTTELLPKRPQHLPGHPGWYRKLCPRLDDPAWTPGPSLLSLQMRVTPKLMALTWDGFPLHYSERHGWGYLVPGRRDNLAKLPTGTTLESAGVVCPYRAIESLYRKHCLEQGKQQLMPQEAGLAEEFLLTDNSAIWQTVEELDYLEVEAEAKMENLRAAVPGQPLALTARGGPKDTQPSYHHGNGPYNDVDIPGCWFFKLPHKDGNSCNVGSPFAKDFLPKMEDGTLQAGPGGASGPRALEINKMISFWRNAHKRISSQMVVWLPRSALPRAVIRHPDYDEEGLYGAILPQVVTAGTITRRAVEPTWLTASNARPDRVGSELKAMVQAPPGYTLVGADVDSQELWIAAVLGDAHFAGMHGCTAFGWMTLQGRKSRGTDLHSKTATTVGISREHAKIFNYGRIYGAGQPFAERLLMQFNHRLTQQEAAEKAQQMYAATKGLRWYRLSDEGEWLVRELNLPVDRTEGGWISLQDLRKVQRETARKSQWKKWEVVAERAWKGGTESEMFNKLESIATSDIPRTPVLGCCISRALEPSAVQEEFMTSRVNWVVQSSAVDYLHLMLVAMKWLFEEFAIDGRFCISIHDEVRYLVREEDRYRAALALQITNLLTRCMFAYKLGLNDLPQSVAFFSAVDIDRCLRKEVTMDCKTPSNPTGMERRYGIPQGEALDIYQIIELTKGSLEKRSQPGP

DNA polymerase theta [4] = molecular target: T2, DNA polymerase theta (Homo sapiens, UniProt O75417); test: Inhibition of DNA polymerase theta in LIG4 knock out HEK293T cells assessed as decrease in MMEJ-mediated DNA repair preincubated for 1 day followed by lentivirus solution addition for 24 hrs prior to media replacement with compound and measured after 96 hrs by flow cytometry based traffic-light reporter assay; format: cell-based
[5] = Inhibition of MMEJ-mediated DNA repair in CRSIPRR/Cas9-induced wildtype human HCT-116 cells incubated for 24 hrs by PCR analysis; format: functional, cell-based
DNA polymerase theta [6] = molecular target: T2, DNA polymerase theta; test: Inhibition of N-terminal His8-tagged/C-terminal FLAG-tagged full length human DNA polymerase theta ( 1 to 2590 residues) polymerase activity expressed in HEK2936E cells; format: cell-based
HCT-116 = test: Antiproliferative activity against BRCA2 knock out human HCT-116 cells assessed as inhibition of cell growth incubated for 12 to 14 days with media replacement for every 3 or 4 days; format: functional, cell-based
[7] = Volume of distribution at steady state in CD-1 mouse at 2.5 mg/kg, po or 2.5 mg/kg, iv measured upto 24 hrs by reverse phase LCMS analysis; format: ADME, organism-based; conditions: in vivo
[8] = Toxicity in CD-1 mouse xenografted with BRCA2 knock out human HCT-116 cells assessed as body weight loss at 80 mg/kg, po administered twice a day for 21 days; format: organism-based; conditions: in vivo, 504 h, time 21 day
[9] = Toxicity in CD-1 mouse xenografted with BRCA2 knock out human HCT-116 cells assessed as drug tolerance at 80 mg/kg, po administered twice a day for 21 days; format: organism-based; conditions: in vivo, 504 h, time 21 day

T2 sequence (O75417 whole entry): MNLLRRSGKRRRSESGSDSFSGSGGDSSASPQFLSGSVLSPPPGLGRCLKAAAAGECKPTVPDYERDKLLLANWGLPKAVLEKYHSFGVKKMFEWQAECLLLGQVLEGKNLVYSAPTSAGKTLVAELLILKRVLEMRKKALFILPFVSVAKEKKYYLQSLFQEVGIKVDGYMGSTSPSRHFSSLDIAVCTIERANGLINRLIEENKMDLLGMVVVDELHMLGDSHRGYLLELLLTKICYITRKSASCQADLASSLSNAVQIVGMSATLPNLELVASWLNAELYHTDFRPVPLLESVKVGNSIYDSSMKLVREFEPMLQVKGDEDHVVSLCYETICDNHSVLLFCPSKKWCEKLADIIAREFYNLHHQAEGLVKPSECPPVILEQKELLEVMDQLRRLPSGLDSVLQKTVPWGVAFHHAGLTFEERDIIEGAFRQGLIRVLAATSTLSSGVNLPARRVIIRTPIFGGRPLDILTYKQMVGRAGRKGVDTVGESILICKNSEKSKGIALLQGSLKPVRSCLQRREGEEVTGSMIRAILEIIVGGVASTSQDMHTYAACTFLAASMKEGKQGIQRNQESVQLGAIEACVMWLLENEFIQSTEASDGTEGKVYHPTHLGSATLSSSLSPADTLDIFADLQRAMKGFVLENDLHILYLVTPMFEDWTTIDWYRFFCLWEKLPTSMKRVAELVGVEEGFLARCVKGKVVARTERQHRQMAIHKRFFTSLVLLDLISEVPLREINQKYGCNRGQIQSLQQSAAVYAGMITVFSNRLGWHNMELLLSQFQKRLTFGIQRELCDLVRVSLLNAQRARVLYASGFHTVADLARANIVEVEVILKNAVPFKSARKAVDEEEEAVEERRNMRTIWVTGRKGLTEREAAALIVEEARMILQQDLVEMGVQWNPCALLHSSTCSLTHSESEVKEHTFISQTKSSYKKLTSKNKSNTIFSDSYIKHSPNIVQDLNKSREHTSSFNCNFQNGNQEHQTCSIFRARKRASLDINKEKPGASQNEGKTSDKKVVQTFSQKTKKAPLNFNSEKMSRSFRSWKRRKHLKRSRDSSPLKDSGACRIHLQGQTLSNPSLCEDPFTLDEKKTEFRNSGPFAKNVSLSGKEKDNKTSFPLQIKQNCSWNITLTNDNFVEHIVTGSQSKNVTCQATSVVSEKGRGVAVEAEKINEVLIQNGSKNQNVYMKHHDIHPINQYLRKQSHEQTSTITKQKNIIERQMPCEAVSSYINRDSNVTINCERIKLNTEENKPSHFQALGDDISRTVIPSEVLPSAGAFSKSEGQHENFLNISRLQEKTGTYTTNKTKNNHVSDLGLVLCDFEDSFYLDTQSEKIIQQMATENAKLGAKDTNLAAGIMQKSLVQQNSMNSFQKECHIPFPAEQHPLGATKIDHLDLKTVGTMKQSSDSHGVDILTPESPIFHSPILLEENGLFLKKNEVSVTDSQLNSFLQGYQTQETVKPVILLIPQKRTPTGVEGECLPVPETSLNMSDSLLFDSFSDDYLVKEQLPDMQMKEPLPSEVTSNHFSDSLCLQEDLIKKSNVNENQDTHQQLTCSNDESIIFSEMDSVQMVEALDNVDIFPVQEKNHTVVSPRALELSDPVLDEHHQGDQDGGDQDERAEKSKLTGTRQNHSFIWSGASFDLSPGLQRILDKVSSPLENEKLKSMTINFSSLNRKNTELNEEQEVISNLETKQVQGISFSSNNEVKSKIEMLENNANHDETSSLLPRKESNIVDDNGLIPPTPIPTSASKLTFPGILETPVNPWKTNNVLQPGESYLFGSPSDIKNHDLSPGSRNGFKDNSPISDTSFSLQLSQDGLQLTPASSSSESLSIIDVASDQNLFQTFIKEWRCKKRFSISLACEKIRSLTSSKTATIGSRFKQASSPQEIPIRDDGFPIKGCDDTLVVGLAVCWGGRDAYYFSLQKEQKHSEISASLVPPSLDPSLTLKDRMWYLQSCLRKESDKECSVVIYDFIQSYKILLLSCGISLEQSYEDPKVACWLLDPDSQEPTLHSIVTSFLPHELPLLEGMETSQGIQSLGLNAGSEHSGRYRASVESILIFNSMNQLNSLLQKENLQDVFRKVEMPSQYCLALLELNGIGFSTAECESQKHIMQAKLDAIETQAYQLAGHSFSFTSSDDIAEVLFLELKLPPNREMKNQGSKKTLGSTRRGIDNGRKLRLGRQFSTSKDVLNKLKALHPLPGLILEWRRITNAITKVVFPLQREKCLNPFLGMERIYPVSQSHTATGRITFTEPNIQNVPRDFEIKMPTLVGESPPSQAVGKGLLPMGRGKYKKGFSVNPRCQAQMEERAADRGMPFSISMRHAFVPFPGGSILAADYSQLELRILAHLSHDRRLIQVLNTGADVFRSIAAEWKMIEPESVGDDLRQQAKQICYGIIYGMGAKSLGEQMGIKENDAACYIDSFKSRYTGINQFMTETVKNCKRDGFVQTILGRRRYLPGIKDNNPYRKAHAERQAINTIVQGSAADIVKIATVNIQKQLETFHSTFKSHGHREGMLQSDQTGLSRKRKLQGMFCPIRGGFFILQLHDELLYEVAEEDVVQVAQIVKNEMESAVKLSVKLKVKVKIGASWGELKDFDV

## Nc1ccc(C#CCN(C(=O)Cc2ncc(C(F)(F)F)cc2C(F)(F)F)c2ccc(F)cc2)nn1
[1]
  Activity: Non-Toxic
[2]
  bioavailability: 66%
[3]
  IC50: > 100000 nM
DNA polymerase theta [4]
  IC50: 940 nM
[5]
  IC50: 450 nM
DNA polymerase theta [6]
  IC50: 0.55 nM
HCT-116
  IC50: 320 nM
[7]
  Vdss: 1.1 L/kg
[8]
  Activity: Non-Toxic
[9]
  Activity: Non-Toxic

Reference: ChEMBL document CHEMBL5108047 (J Med Chem, 2022)
